According to ChEMBL document CHEMBL4428082, “Aligning Potency and Pharmacokinetic Properties for Pyridine-Based NCINIs” (ACS Med Chem Lett, 2016):
Converted amounts (≈) assume the structure as drawn.

How the values were obtained:
[1] = Inhibition of HIV NL4.3 integrase T124/T125 double mutant assessed as reduction in viral replication by luciferase reporter gene assay; set-up: species or system Human immunodeficiency virus
[2] = Inhibition of HIV NL4.3 integrase N124/T125 double mutant assessed as reduction in viral replication by luciferase reporter gene assay; set-up: species or system Human immunodeficiency virus
[3] = tested on: Human immunodeficiency virus; assay: Ratio of EC50 for HIV1 NL4.3 integrase N124/T125 double mutant in presence of human serum to EC50 for HIV1 NL4.3 integrase N124/T125 double mutant in absence of human serum
[4] = Half life in human liver microsomes; assay type: ADME, Microsome
[5] = Half life in bile duct cannulated rat; assay type: ADME; settings: in vivo
[6] = Half life in rat; assay type: ADME; settings: in vivo
[7] = Apparent permeability in human Caco2 cells; assay type: ADME, cell-based; settings: Caco-2
[8] = Solubility of the compound at pH 6.8; assay type: physicochemical; settings: buffer
[9] = Clearance in human hepatocytes relative to hepatic blood flow; assay type: ADME, cell-based, Hepatocyte; settings: read-out: CLH
[10] = Clearance in rat hepatocytes relative to hepatic blood flow; assay type: ADME, cell-based, Hepatocyte; settings: read-out: CLH
[11] = Clearance in iv dosed rat relative to hepatic blood flow; assay type: ADME, organism-based; settings: in vivo
[12] = Volume of distribution at steady state in rat; assay type: ADME; settings: in vivo, read-out: Vdss
[13] = Total drug excretion in rat bile assessed as acyl glucuronide of parent compound at 3 hrs; assay type: ADME, tissue-based; settings: in vivo
[14] = Inhibition of HIV NL4.3 integrase T124/T125 double mutant infected in PBMC assessed as reduction in viral replication by p24 ELISA; settings: Human immunodeficiency virus 1, NL4.3
[15] = Inhibition of HIV NL4.3 integrase T124/A125 double mutant infected in PBMC assessed as reduction in viral replication by p24 ELISA; settings: Human immunodeficiency virus 1, NL4.3
[16] = Inhibition of HIV NL4.3 integrase A124/T125 double mutant infected in PBMC assessed as reduction in viral replication by p24 ELISA; settings: Human immunodeficiency virus 1, NL4.3
[17] = Inhibition of HIV NL4.3 integrase A124/A125 double mutant infected in PBMC assessed as reduction in viral replication by p24 ELISA; settings: Human immunodeficiency virus 1, NL4.3
[18] = Inhibition of HIV NL4.3 integrase N124/T125 double mutant infected in PBMC assessed as reduction in viral replication by p24 ELISA; settings: Human immunodeficiency virus 1, NL4.3
[19] = Inhibition of HIV NL4.3 integrase N124/A125 double mutant infected in PBMC assessed as reduction in viral replication by p24 ELISA; settings: Human immunodeficiency virus 1, NL4.3
Cytochrome P450 3A4 = Cytochrome P450 3A4 (Homo sapiens, UniProt P08684); assay: Inhibition of CYP3A4 (unknown origin); assay type: ADME
Cytochrome P450 2D6 = Cytochrome P450 2D6 (Homo sapiens, UniProt P10635); assay: Inhibition of CYP2D6 (unknown origin); assay type: ADME
Cytochrome P450 1A2 = molecular target: T1, Cytochrome P450 1A2 (Homo sapiens, UniProt P05177); assay: Inhibition of CYP1A2 (unknown origin); assay type: ADME
T1 sequence (P05177 whole entry): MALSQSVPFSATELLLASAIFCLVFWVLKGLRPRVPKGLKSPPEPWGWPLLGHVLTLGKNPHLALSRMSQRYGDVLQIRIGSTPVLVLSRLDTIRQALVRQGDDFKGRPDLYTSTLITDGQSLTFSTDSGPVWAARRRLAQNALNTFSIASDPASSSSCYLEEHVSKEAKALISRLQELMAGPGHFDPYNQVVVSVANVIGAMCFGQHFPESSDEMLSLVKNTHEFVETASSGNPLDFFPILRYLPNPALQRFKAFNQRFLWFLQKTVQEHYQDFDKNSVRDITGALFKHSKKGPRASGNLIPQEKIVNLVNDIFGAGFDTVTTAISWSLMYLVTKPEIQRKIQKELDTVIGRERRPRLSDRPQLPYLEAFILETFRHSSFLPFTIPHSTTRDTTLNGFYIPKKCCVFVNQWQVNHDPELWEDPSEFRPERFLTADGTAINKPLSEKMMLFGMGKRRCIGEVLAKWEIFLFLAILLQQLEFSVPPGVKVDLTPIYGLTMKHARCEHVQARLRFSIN

Cytochrome P450 2C19 = Cytochrome P450 2C19 (Homo sapiens, UniProt P33261); assay: Inhibition of CYP2C19 (unknown origin); assay type: ADME
Cytochrome P450 2C9 = Cytochrome P450 2C9 (Homo sapiens, UniProt P11712); assay: Inhibition of CYP2C9 (unknown origin); assay type: ADME
[20] = Clearance in dog hepatocytes relative to hepatic blood flow; assay type: ADME, cell-based, Canis lupus familiaris, Hepatocyte; settings: read-out: CLH
[21] = Clearance in monkey hepatocytes relative to hepatic blood flow; assay type: ADME, cell-based, Macaca mulatta, Hepatocyte; settings: rhesus monkey, read-out: CLH
[22] = Clearance in iv dosed dog relative to hepatic blood flow; assay type: ADME, organism-based, Canis lupus familiaris; settings: in vivo
[23] = Clearance in iv dosed monkey relative to hepatic blood flow; assay type: ADME, organism-based, Macaca mulatta; settings: rhesus monkey, in vivo
[24] = Clearance in rat relative to hepatic blood flow; assay type: ADME; settings: in vivo

Chain of Cytochrome P450 2C19 (P33261 whole entry): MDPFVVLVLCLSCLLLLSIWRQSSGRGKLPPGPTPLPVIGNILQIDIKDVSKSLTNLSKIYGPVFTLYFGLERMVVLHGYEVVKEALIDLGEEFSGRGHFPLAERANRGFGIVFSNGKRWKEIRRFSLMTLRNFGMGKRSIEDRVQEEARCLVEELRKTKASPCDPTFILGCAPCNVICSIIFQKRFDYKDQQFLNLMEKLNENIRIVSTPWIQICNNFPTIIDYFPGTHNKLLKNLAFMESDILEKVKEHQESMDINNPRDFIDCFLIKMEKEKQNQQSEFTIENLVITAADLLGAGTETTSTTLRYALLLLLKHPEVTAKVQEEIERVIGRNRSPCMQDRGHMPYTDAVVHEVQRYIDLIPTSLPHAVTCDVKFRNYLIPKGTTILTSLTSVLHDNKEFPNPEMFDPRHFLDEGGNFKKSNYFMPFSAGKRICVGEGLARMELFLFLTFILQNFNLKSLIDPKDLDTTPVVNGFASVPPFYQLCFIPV
Chain of Cytochrome P450 3A4 (P08684 whole entry): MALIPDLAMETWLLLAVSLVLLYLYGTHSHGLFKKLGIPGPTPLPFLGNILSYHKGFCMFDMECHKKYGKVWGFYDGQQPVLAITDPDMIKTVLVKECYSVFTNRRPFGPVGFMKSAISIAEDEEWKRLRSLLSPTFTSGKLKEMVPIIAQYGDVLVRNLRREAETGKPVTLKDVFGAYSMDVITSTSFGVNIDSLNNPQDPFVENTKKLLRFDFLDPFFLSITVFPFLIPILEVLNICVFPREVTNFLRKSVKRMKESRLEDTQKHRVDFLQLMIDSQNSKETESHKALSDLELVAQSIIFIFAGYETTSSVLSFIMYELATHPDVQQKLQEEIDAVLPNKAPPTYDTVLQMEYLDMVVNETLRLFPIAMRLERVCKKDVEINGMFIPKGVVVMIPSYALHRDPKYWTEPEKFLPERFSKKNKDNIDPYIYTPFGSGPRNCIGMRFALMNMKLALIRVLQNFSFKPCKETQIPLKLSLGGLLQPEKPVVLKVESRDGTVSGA
Chain of Cytochrome P450 2D6 (P10635 whole entry): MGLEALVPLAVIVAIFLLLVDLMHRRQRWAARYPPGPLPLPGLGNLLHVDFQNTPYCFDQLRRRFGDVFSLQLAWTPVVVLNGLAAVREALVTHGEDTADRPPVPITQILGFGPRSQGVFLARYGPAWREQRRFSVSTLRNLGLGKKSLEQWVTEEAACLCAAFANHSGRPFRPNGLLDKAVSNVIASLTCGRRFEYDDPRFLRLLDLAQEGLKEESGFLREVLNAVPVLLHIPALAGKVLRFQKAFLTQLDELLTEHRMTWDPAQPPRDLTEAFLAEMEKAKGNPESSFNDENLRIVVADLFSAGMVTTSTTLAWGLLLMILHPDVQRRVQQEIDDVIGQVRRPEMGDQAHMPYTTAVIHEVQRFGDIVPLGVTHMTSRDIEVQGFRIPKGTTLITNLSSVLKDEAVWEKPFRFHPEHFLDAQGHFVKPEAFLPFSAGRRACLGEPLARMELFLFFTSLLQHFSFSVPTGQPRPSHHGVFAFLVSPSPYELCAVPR
Chain of Cytochrome P450 2C9 (P11712 whole entry): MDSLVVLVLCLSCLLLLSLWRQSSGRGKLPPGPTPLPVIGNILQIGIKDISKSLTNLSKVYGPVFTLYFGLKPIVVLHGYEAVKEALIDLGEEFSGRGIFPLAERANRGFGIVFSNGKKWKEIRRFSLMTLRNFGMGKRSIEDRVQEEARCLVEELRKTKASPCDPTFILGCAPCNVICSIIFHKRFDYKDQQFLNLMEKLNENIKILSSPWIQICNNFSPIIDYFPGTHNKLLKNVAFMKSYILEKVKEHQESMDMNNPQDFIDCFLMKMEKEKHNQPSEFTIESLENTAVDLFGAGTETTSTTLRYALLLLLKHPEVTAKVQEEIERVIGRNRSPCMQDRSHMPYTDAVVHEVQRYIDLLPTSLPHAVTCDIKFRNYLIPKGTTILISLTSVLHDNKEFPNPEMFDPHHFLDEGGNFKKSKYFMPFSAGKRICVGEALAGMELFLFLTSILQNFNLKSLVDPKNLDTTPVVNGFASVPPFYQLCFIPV

## Cc1nc(C(=O)Nc2ccccc2)c(C)c(-c2ccc(Cl)cc2)c1[C@H](OC(C)(C)C)C(=O)O
[1]
  EC50: 12 nM
[2]
  EC50: 670 nM

## Cc1noc(C)c1-c1ccc(-c2nc(C)c([C@H](OC(C)(C)C)C(=O)O)c(-c3ccc4c(c3)CCCO4)c2C)cc1
[1]
  EC50: 5.5 nM
[2]
  EC50: 390 nM
[3]
  Ratio EC50: 7.8

## Cc1nc(C(=O)NC(C)(C)C2CC2)c(C)c(-c2ccc(Cl)cc2)c1[C@H](OC(C)(C)C)C(=O)O
[1]
  EC50: 4.4 nM
[2]
  EC50: 560 nM
[3]
  Ratio EC50: 1.5
[4]
  half-life: 3.63 h

## Cc1nc(NC(=O)c2ccccc2OC(F)(F)F)c(C)c(-c2ccc3c(c2C)N(C)CCO3)c1[C@H](OC(C)(C)C)C(=O)O
[1]
  EC50: 4.7 nM
[3]
  Ratio EC50: 2.6
[4]
  half-life: > 5 h

## Cc1nc(C(=O)N[C@H]2CC[C@H](C)CC2)c(C)c(-c2ccc(Cl)cc2)c1[C@H](OC(C)(C)C)C(=O)O
[1]
  EC50: 7.3 nM
[2]
  EC50: 570 nM
[3]
  Ratio EC50: 3.7
[4]
  half-life: 3.07 h

## Cc1nc(C(=O)N[C@H]2CC[C@H](C)CC2)c(C)c(-c2ccc3c(c2)NCCO3)c1[C@H](OC(C)(C)C)C(=O)O
[1]
  EC50: 27 nM
[2]
  EC50: 280 nM
[3]
  Ratio EC50: 2.1
[4]
  half-life: > 5 h

## Cc1nc(C(=O)NCc2ccccc2)c(C)c(-c2ccc3c(c2)CCCO3)c1[C@H](OC(C)(C)C)C(=O)O
[1]
  EC50: 14 nM
[2]
  EC50: 200 nM
[3]
  Ratio EC50: 23

## Cc1nc(NC(=O)c2ccccc2)c(C)c(-c2ccc(Cl)cc2)c1[C@H](OC(C)(C)C)C(=O)O
[1]
  EC50: 15 nM
[2]
  EC50: 1100 nM

## Cc1nc(-c2cn(-c3ccccc3)nn2)c(C)c(-c2ccc3c(c2)CCCO3)c1[C@H](OC(C)(C)C)C(=O)O
[1]
  EC50: 4.7 nM
[2]
  EC50: 310 nM
[3]
  Ratio EC50: 17

## Cc1ccc2[nH]c(-c3nc(C)c([C@H](OC(C)(C)C)C(=O)O)c(-c4ccc(Cl)cc4)c3C)nc2c1
[1]
  EC50: 1.1 nM
[3]
  Ratio EC50: 13
[4]
  half-life: 2.77 h

## Cc1nc(C(=O)NC2CCN(C)CC2)c(C)c(-c2ccc(Cl)cc2)c1[C@H](OC(C)(C)C)C(=O)O
[1]
  EC50: 2200 nM

## Cc1cccc(NC(=O)c2nc(C)c([C@H](OC(C)(C)C)C(=O)O)c(-c3ccc(Cl)cc3)c2C)c1
[1]
  EC50: 3.7 nM
[4]
  half-life: > 5 h

## Cc1nc(C(=O)N[C@H]2CC[C@H](C)CC2)c(C)c(-c2ccc3c(c2C)N(C)CCO3)c1[C@H](OC(C)(C)C)C(=O)O
[1]
  EC50: 2.5 nM
[2]
  EC50: 170 nM
[5]
  half-life: 1.3 h
[3]
  Ratio EC50: 2.9
[4]
  half-life: > 5 h
[6]
  half-life: 1.3 h
[7]
  Papp: 39.8 ×10⁻⁶ cm/s
[8]
  solubility: 930 µg/mL (≈ 1730 µM)
[9]
  hepatic extraction ratio: 0.17
[10]
  hepatic extraction ratio: 0.07
[11]
  CL: 23%
[12]
  Vd: 1.4 L/kg
[13]
  Drug excretion: 20%
[14]
  EC50: 0.5 nM
[15]
  EC50: 0.4 nM
[16]
  EC50: 0.6 nM
[17]
  EC50: 0.9 nM
[18]
  EC50: 27 nM
[19]
  EC50: 42 nM
Cytochrome P450 3A4
  IC50: > 30000 nM
Cytochrome P450 2D6
  IC50: > 30000 nM
Cytochrome P450 1A2
  IC50: > 30000 nM
Cytochrome P450 2C19
  IC50: > 30000 nM
Cytochrome P450 2C9
  IC50: > 30000 nM
[20]
  hepatic extraction ratio: 0.31
[21]
  hepatic extraction ratio: 0.31
[22]
  CL: 10%
[23]
  CL: 30%

## Cc1nc(-c2nc3cccc(C)c3n2C)c(C)c(-c2ccc(Cl)cc2)c1[C@H](OC(C)(C)C)C(=O)O
[1]
  EC50: 3 nM
[3]
  Ratio EC50: 3.2
[4]
  half-life: 2 h

## Cc1nc(-c2nc3ccc(F)cc3n2C)c(C)c(-c2ccc3c(c2C)N(C)CCO3)c1[C@H](OC(C)(C)C)C(=O)O
[1]
  EC50: 3 nM
[2]
  EC50: 120 nM
[3]
  Ratio EC50: 1.4
[4]
  half-life: 1.58 h

## Cc1nc(C(=O)N[C@H]2CC[C@H](O)CC2)c(C)c(-c2ccc(Cl)cc2)c1[C@H](OC(C)(C)C)C(=O)O
[1]
  EC50: 930 nM
[4]
  half-life: > 5 h

## Cc1nc2ccccc2c(-c2ccc3c4c(ccnc24)CCO3)c1[C@H](OC(C)(C)C)C(=O)O [BI-224436]
[1]
  EC50: 19 nM
[2]
  EC50: 30 nM
[24]
  CL: 0.7%

## Cc1nc(C(=O)N[C@H]2CC[C@H](C)CC2)c(C)c(-c2ccc3c4c(cccc24)CCO3)c1[C@H](OC(C)(C)C)C(=O)O
[1]
  EC50: 16 nM
[2]
  EC50: > 2500 nM
[3]
  Ratio EC50: 2.9
[4]
  half-life: > 5 h

## Cc1nc(C(=O)N[C@H]2CC[C@H](C)CC2)c(C)c(-c2ccc3c(c2C)NCCO3)c1[C@H](OC(C)(C)C)C(=O)O
[1]
  EC50: 7.5 nM
[2]
  EC50: 130 nM
[3]
  Ratio EC50: 3
[4]
  half-life: 3.12 h

## Cc1noc(C)c1-c1ccc(-c2nc(C)c([C@H](OC(C)(C)C)C(=O)O)c(-c3ccc(Cl)cc3)c2C)cc1
[1]
  EC50: 7.7 nM
[2]
  EC50: 810 nM
[24]
  CL: 0.6%

## Cc1ccc2nc(-c3nc(C)c([C@H](OC(C)(C)C)C(=O)O)c(-c4ccc5c(c4C)N(C)CCO5)c3C)n(C)c2c1
[1]
  EC50: 3 nM
[2]
  EC50: 91 nM
[3]
  Ratio EC50: 3.9
[4]
  half-life: 1.58 h

## Cc1nc(C(=O)N[C@H]2CC[C@H](C)CC2)c(C)c(-c2ccc3c(c2)CCCO3)c1[C@H](OC(C)(C)C)C(=O)O
[1]
  EC50: 4.2 nM
[2]
  EC50: 220 nM
[3]
  Ratio EC50: 4.1
[4]
  half-life: 0.817 h

## Cc1nc(C(=O)N[C@H]2CC[C@H](C)CC2)c(C)c(-c2ccc3c(c2)N(C)CCO3)c1[C@H](OC(C)(C)C)C(=O)O
[1]
  EC50: 6.8 nM
[2]
  EC50: 600 nM
[3]
  Ratio EC50: 4.1
[4]
  half-life: > 5 h

## Cc1nc(NC(=O)c2ccccc2OC(F)(F)F)c(C)c(-c2ccc3c(c2)N(C)CCO3)c1[C@H](OC(C)(C)C)C(=O)O
[1]
  EC50: 7.4 nM
[2]
  EC50: 220 nM
[3]
  Ratio EC50: 3.4
[4]
  half-life: > 5 h

## Cc1nc(-c2nc3ccccc3n2C)c(C)c(-c2ccc3c(c2C)N(C)CCO3)c1[C@H](OC(C)(C)C)C(=O)O
[1]
  EC50: 3.3 nM
[2]
  EC50: 59 nM
[3]
  Ratio EC50: 4.9
[4]
  half-life: 3.25 h
[7]
  Papp: 10.6 ×10⁻⁶ cm/s
[8]
  solubility: > 1000 µg/mL
[9]
  hepatic extraction ratio: 0.24
[10]
  hepatic extraction ratio: 0.19
[11]
  CL: 24%
[12]
  Vd: 1.6 L/kg
[13]
  Drug excretion: 70%
